Laboratory results taken from patent publication US8415351B2 (priority 2007, dated 2013).
Counter-ions that a name gives are not always drawn. Like-named read-outs stand apart in the source and are kept apart here.

Legend:
[1] = target: T1, HCV polymerase 1A (Δ21 NS5B, H77) (Hepatitis C virus genotype 1a, UniProt P27958); experiment: biochemical
T1 construct: 20 to 50 nM Δ21 NS5B
Method: (§1) HCV Polymerase Inhibition Assay
The reaction was initiated by the addition of 20 μM CTP, 20 μM ATP, 1 μM ^3H-UTP (10 mCi/umol), 5 nM template RNA and 0.1 U/μl RNase inhibitor (RNasin, Promega), and allowed to proceed for 2 to 4 h at room temperature. Reaction volume was 50 μl. The reaction was terminated by the addition of 1 volume of 4 mM spermine in 10 mM Tris-Cl pH 8.0, 1 mM EDTA. After incubation for at least 15 min at room temperature, the precipitated RNA was captured by filtering through a GF/B filter (Millipore) in a 96 well format. The filter plate was washed three times with 200 μl each of 2 mM spermine, 10 mM Tris-Cl pH 8.0, 1 mM EDTA, and 2 times with ethanol. After air-drying, 30 μl of Microscint 20 scintillation cocktail (Packard) was added to each well, and the retained cpm were determined by scintillation counting. […] Retained cpm were plotted vs. inhibitor concentration and fit to equation 1 using non-linear regression (ref. 1) to obtain the IC50 values: Retained cpm=A[sqrt{(IC50+It−Et)^2+4*IC50*Et}−(IC50+It−Et)]
Ref. Morrison, J. F. and S. R. Stone. […] Approaches to the study and analysis of the inhibition of enzymes by slow- and tight-binding inhibitors. Comments Mol. Cell. Biophys.
The sequence of the template RNA used was: 5′-[…]

[2] = target: T2, HCV polymerase 1B (Δ21 NS5B, BK) (Hepatitis C virus genotype 1b, UniProt P26663); experiment: biochemical
T2 construct: 20 to 50 nM Δ21 NS5B
T2 sequence (P26663 2420-2989, stated change not applied): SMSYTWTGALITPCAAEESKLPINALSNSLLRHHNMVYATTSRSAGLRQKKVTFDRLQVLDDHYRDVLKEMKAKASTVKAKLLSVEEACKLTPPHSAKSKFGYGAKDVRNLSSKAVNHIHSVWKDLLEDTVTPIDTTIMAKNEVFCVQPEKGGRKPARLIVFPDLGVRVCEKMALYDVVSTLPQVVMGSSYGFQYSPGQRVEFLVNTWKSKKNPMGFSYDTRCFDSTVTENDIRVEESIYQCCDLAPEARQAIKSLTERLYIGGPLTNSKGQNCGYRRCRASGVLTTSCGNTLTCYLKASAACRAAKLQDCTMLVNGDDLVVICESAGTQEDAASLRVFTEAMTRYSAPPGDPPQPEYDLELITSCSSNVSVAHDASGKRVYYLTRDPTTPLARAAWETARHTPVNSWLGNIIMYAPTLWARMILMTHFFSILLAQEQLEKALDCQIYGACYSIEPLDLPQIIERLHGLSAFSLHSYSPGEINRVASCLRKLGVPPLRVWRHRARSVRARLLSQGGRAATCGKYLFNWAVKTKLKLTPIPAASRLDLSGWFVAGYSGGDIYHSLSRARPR
Method: as §1
Either two-fold serial dilutions (fractional inhibition assay) or a narrower range of dilutions spanning the IC50 of the inhibitor (tight binding assay) of the inhibitors were incubated with 20 mM Tris-Cl pH 7.4, 2 mM MnCl2, 1 mM dithiothreitol, 1 mM ethylene diamine tetraacetic acid (EDTA), 60 to 125 μM GTP and 20 to 50 nM Δ21 NS5B (HCV Strain 1B (BK, Genbank accession number M58335, or H77, Genbank accession number AF011751)) for 15 min at room temperature. The reaction was initiated by the addition of 20 μM CTP, 20 μM ATP, 1 μM ^3H-UTP (10 mCi/umol), 5 nM template RNA and 0.1 U/μl RNase inhibitor (RNasin, Promega), and allowed to proceed for 2 to 4 h at room temperature. Reaction volume was 50 μl. The reaction was terminated by the addition of 1 volume of 4 mM spermine in 10 mM Tris-Cl pH 8.0, 1 mM EDTA. After incubation for at least 15 min at room temperature, the precipitated RNA was captured by filtering through a GF/B filter (Millipore) in a 96 well format. The filter plate was washed three times with 200 μl each of 2 mM spermine, 10 mM Tris-Cl pH 8.0, 1 mM EDTA, and 2 times with ethanol. After air-drying, 30 μl of Microscint 20 scintillation cocktail (Packard) was added to each well, and the retained cpm were determined by scintillation counting. […] Retained cpm were plotted vs. inhibitor concentration and fit to equation 1 using non-linear regression (ref. 1) to obtain the IC50 values: Retained cpm=A[sqrt{(IC50+It−Et)^2+4*IC50*Et}−(IC50+It−Et)]
Ref. Morrison, J. F. and S. R. Stone. 1985. Approaches to the study and analysis of the inhibition of enzymes by slow- and tight-binding inhibitors. Comments Mol. Cell. Biophys. 2: 347-368.
The sequence of the template RNA used was: 5′-[…] […] […] […] […] […] […] […] […] […] […] […] […] […] […] […] […]-3′ (SEQ ID NO: 1)

T1 sequence (P27958 2421-2990, stated change not applied): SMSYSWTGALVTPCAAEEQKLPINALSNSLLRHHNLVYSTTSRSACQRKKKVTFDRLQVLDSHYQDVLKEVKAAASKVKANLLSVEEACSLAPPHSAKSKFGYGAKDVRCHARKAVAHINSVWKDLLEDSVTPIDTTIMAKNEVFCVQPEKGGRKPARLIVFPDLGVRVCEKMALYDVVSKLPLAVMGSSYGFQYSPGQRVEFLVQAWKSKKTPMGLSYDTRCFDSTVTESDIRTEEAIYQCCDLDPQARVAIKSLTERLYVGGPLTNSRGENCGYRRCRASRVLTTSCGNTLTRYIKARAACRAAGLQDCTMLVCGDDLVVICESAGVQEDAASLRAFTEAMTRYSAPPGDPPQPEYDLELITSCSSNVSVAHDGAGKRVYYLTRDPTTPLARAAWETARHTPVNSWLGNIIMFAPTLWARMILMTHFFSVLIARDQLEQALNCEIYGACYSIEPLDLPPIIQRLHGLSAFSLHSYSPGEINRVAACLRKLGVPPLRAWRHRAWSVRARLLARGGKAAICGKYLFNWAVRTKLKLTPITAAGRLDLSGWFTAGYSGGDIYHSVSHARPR

With CCCC(=O)OCN1C(=O)CCN(c2cc(C(=O)Nc3ccc(N(COC(=O)CCC)S(C)(=O)=O)cc3)c(OC)c(C(C)(C)C)c2)C1=O [IA-L3-1.88, (N-(4-(3-tert-butyl-5-(3-(butyryloxymethyl)-2,4-dioxotetrahydropyrimidin-1(2H)-yl)-2-methoxybenzamido)phenyl)methylsulfonamido)methyl butyrate] as the compound, how does the IC50 ([1]; IC50 1a) read?
Its IC50 is > 1 µM.

And the IC50 [2]?
Its IC50 is > 1 µM.

With COc1c(C(=O)Nc2ccc(N(S(C)(=O)=O)S(C)(=O)=O)cn2)cc(N2CCC(=O)NC2=O)cc1C(C)(C)C [IA-L3-1.101, 3-tert-butyl-5-(2,4-dioxotetrahydropyrimidin-1(2H)-yl)-2-methoxy-N-(5-(N-(methylsulfonyl)methylsulfonamido)pyridin-2-yl)benzamide] as the compound, how does the IC50 ([1]; IC50 1a) read?
The IC50 was > 1 µM.

What about the IC50 [2] of the same compound?
The IC50 was > 1 µM.

C=CCN(c1ccc(NC(=O)c2cc(N3CCC(=O)NC3=O)cc(C(C)(C)C)c2OC)cc1)S(C)(=O)=O [IA-L3-1.108, N-(4-(N-allylmethylsulfonamido)phenyl)-3-tert-butyl-5-(2,4-dioxotetrahydropyrimidin-1(2H)-yl)-2-methoxybenzamide] was tested. Which IC50 ([1]; IC50 1a) did it give?
Its IC50 is > 1 µM.

What about the IC50 [2] of the same compound?
The IC50 was > 1 µM.

Which results are given for CS(=O)(=O)Nc1ccc(NC(=O)c2cc(N3CCC(=O)NC3=O)ccc2O)cc1 [IA-L3-1.114, 5-(2,4-dioxotetrahydropyrimidin-1(2H)-yl)-2-hydroxy-N-(4-(methylsulfonamido)phenyl)benzamide]?
IC50 ([1]; IC50 1a): > 1 µM; IC50 [2]: > 1 µM

With COc1c(C(=O)Nc2ccc(N(COC(=O)C(C)(C)C)S(C)(=O)=O)cc2)cc(N2CCC(=O)N(COC(=O)C(C)(C)C)C2=O)cc1C(C)(C)C [IA-L3-1.116, (3-(3-tert-butyl-4-methoxy-5-(4-(N-(pivaloyloxymethyl)methylsulfonamido)phenylcarbamoyl)phenyl)-2,6-dioxotetrahydropyrimidin-1(2H)-yl)methyl pivalate] as the compound, how does the IC50 ([1]; IC50 1a) read?
Its IC50 is > 1 µM.

And the IC50 [2]?
The IC50 was > 1 µM.

Which IC50 ([1]; IC50 1a) does the source give for COc1c(C(=O)Nc2ccc(NS(C)(=O)=O)cc2)cc(N2CCC(=O)N(CC3OCCO3)C2=O)cc1C(C)(C)C [IA-L3-1.117, 5-(3-((1,3-dioxolan-2-yl)methyl)-2,4-dioxotetrahydropyrimidin-1(2H)-yl)-3-tert-butyl-2-methoxy-N-(4-(methylsulfonamido)phenyl)benzamide] here?
Its IC50 is > 1 µM.

What about the IC50 [2] of the same compound?
Its IC50 is > 1 µM.

Which IC50 ([1]; IC50 1a) does the source give for C=CCN1C(=O)CCN(c2cc(C(=O)Nc3ccc(N(CC=C)S(C)(=O)=O)cc3)c(OC)c(C(C)(C)C)c2)C1=O [IA-L3-1.118, 5-(3-allyl-2,4-dioxotetrahydropyrimidin-1(2H)-yl)-N-(4-(N-allylmethylsulfonamido)phenyl)-3-tert-butyl-2-methoxybenzamide] here?
The IC50 was > 1 µM.

What about the IC50 [2] of the same compound?
Its IC50 is > 1 µM.

Which results are given for COc1c(C(=O)Nc2ccc3c(c2)CS(=O)(=O)C3)cc(N2CCC(=O)NC2=O)cc1C(C)(C)C [IA-L3-2.3, 3-tert-butyl-N-(2,2-dioxo-1,3-dihydrobenzo[c]thiophen-5-yl)-5-(2,4-dioxotetrahydropyrimidin-1(2H)-yl)-2-methoxybenzamide]?
IC50 ([1]; IC50 1a): > 1 µM; IC50 [2]: > 1 µM

How did the IC50 ([1]; IC50 1a) turn out when CC(C)(C)c1cc(N2CCC(=O)NC2=O)cc(NC(=O)c2ccccc2)c1O [IA-L4-1.2, N-(3-tert-butyl-5-(2,4-dioxotetrahydropyrimidin-1(2H)-yl)-2-hydroxyphenyl)benzamide] was run?
Its IC50 is > 1 µM.

What about the IC50 [2] of the same compound?
The IC50 was > 1 µM.

What does the source list for CC(C)(C)c1cc(N2CCC(=O)NC2=O)cc(NC(=O)c2ccc([N+](=O)[O-])cc2)c1O [IA-L4-1.5, N-(3-tert-butyl-5-(2,4-dioxotetrahydropyrimidin-1(2H)-yl)-2-hydroxyphenyl)-4-nitro benzamide]?
IC50 ([1]; read-out: IC50 1a): > 1 µM; IC50 ([2]; HCV polymerase 1b, read-out: IC50 1b): > 1 µM

CC(C)(C)c1cc(N2CCC(=O)NC2=O)cc(NC(=O)c2ccc(N)cc2)c1O [IA-L4-1.6, 4-amino-N-(3-tert-butyl-5-(2,4-dioxotetrahydropyrimidin-1(2H)-yl)-2-hydroxyphenyl)benzamide] was tested. Which IC50 ([1]; IC50 1a) did it give?
The IC50 was > 1 µM.

And the IC50 [2]?
Its IC50 is > 1 µM.

How did the IC50 ([1]; IC50 1a) turn out when COc1c(NC(=O)c2ccc(CS(C)(=O)=O)cc2)cc(N2CCC(=O)NC2=O)cc1C(C)(C)C [IA-L4-1.10, N-(3-tert-butyl-5-(2,4-dioxotetrahydropyrimidin-1(2H)-yl)-2-methoxyphenyl)-4-(methylsulfonylmethyl)benzamide] was run?
The IC50 was > 1 µM.

What about the IC50 [2] of the same compound?
Its IC50 is > 1 µM.

With CC(C)(C)OC(=O)NC1CCN(Cc2cc(N3CCC(=O)NC3=O)cc(C(C)(C)C)c2O)CC1 [IA-L5-1-1.1, {1-[3-tert-butyl-5-(2,4-dioxo-tetrahydro-pyrimidin-1-yl)-2-hydroxy-benzyl]-piperidin-4-yl}-carbamic acid tert-butyl ester] as the compound, how does the IC50 ([1]; IC50 1a) read?
Its IC50 is > 1 µM.

And the IC50 [2]?
Its IC50 is > 1 µM.

CC(C)(C)c1cc(N2CCC(=O)NC2=O)cc(CN2CCCC(CNS(C)(=O)=O)C2)c1O (centres unmarked) [IA-L5-1-1.2, N-{1-[3-tert-butyl-5-(2,4-dioxo-tetrahydro-pyrimidin-1-yl)-2-hydroxy-benzyl]-piperidin-3-ylmethyl}-methanesulfonamide] was tested. Which IC50 ([1]; IC50 1a) did it give?
Its IC50 is > 1 µM.

And the IC50 [2]?
The IC50 was > 1 µM.

How did the IC50 ([1]; IC50 1a) turn out when CCOC(=O)C1CCCN(Cc2cc(N3CCC(=O)NC3=O)cc(C(C)(C)C)c2O)C1 (centres unmarked) [IA-L5-1-1.3, 1-[3-tert-butyl-5-(2,4-dioxo-tetrahydro-pyrimidin-1-yl)-2-hydroxy-benzyl]-piperidine-3-carboxylic acid ethyl ester] was run?
The IC50 was > 1 µM.

And the IC50 [2]?
Its IC50 is > 1 µM.

With CC1CCCN(Cc2cc(N3CCC(=O)NC3=O)cc(C(C)(C)C)c2O)C1 (centres unmarked) [IA-L5-1-1.4, 1-[3-tert-butyl-4-hydroxy-5-(3-methyl-piperidin-1-ylmethyl)-phenyl]-dihydro-pyrimidine-2,4-dione; compound with trifluoroacetic acid] as the compound, how does the IC50 ([1]; IC50 1a) read?
Its IC50 is > 1 µM.

What about the IC50 [2] of the same compound?
The IC50 was > 1 µM.

Which results are given for COC(=O)C1CCN(Cc2cc(N3CCC(=O)NC3=O)cc(C(C)(C)C)c2O)CC1 [IA-L5-1-1.5, 1-[3-tert-butyl-5-(2,4-dioxo-tetrahydro-pyrimidin-1-yl)-2-hydroxy-benzyl]-piperidine-4-carboxylic acid methyl ester]?
IC50 ([1]; IC50 1a): > 1 µM; IC50 [2]: > 1 µM

What does the source list for CC(C)(C)c1cc(N2CCC(=O)NC2=O)cc(CN2CCC[C@@H](O)C2)c1O [IA-L5-1-1.6, 1-[3-tert-butyl-4-hydroxy-5-((R)-3-hydroxy-piperidin-1-ylmethyl)-phenyl]-dihydro-pyrimidine-2,4-dione; compound with trifluoroacetic acid]?
IC50 ([1]; IC50 1a): > 1 µM; IC50 [2]: > 1 µM

How did the IC50 ([1]; IC50 1a) turn out when CCN(CC)C(=O)C1CCCN(Cc2cc(N3CCC(=O)NC3=O)cc(C(C)(C)C)c2O)C1 (centres unmarked) [IA-L5-1-1.7, 1-[3-tert-butyl-5-(2,4-dioxo-tetrahydro-pyrimidin-1-yl)-2-hydroxy-benzyl]-piperidine-3-carboxylic acid diethylamide, trifluoroacetic acid salt] was run?
Its IC50 is > 1 µM.

What about the IC50 [2] of the same compound?
The IC50 was > 1 µM.

Which results are given for CC(C)(C)c1cc(N2CCC(=O)NC2=O)cc(CN2CCCC(C(N)=O)C2)c1O (centres unmarked) [IA-L5-1-1.8, 1-[3-tert-butyl-5-(2,4-dioxo-tetrahydro-pyrimidin-1-yl)-2-hydroxy-benzyl]-piperidine-3-carboxylic acid amide, trifluoroacetic acid salt]?
IC50 ([1]; IC50 1a): > 1 µM; IC50 [2]: > 1 µM

With CC(C)(C)OC(=O)N1CCN(Cc2cc(N3CCC(=O)NC3=O)cc(C(C)(C)C)c2O)CC1 [IA-L5-1-1.10, 4-[3-tert-butyl-5-(2,4-dioxo-tetrahydro-pyrimidin-1-yl)-2-hydroxy-benzyl]-piperazine-1-carboxylic acid tert-butyl ester] as the compound, how does the IC50 ([1]; IC50 1a) read?
The IC50 was > 1 µM.

And the IC50 [2]?
The IC50 was > 1 µM.

Which results are given for CC(C)(C)c1cc(N2CCC(=O)NC2=O)cc(CN2CCC(NS(C)(=O)=O)C2)c1O (centres unmarked) [IA-L5-1-1.11, N-{1-[3-tert-butyl-5-(2,4-dioxo-tetrahydro-pyrimidin-1-yl)-2-hydroxy-benzyl]-pyrrolidin-3-yl}-methanesulfonamide]?
IC50 ([1]; IC50 1a): > 1 µM; IC50 [2]: > 1 µM
